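Growth conditions: 96-well plates. Treatment: test compound, 48 hours, 5 concentrations. Analysis: linear interpolation between bracketing concentrations; unreached endpoints set to highest concentration. GI50 = concentration required for 50% inhibition of growth. TGI denotes the concentration required for complete inhibition of growth.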
Experiments:
Experiment in all cases: inhibition of tumour cell growth, NCI panel, 48 h
HOP-62 NSCLC = tested on: HOP-62 NSCLC
BT-549 breast = tested on: BT-549 breast
UACC-257 melanoma = tested on: UACC-257 melanoma
SF-295 CNS = tested on: SF-295 CNS
NCI-H522 lung = tested on: NCI-H522 lung
HCT-15 colon = tested on: HCT-15 colon
CAKI-1 renal = tested on: CAKI-1 renal
DU-145 prostate = tested on: DU-145 prostate
SK-MEL-5 melanoma = tested on: SK-MEL-5 melanoma
SR leukemia = tested on: SR leukemia
CCRF-CEM leukemia = tested on: CCRF-CEM leukemia
SW-620 colon = tested on: SW-620 colon
OVCAR-3 ovarian = tested on: OVCAR-3 ovarian
M14 melanoma = tested on: M14 melanoma
SNB-19 CNS = tested on: SNB-19 CNS
SF-268 CNS = tested on: SF-268 CNS
K-562 leukemia = tested on: K-562 leukemia
MALME-3M melanoma = tested on: MALME-3M melanoma
SF-539 CNS = tested on: SF-539 CNS
HT29 colon = tested on: HT29 colon
U251 CNS = tested on: U251 CNS
HL-60(TB) leukemia = tested on: HL-60(TB) leukemia
MOLT-4 leukemia = tested on: MOLT-4 leukemia
OVCAR-5 ovarian = tested on: OVCAR-5 ovarian
MDA-MB-435 = tested on: MDA-MB-435
A549 NSCLC = tested on: A549 NSCLC
SK-MEL-28 melanoma = tested on: SK-MEL-28 melanoma
NCI/ADR-RES ovarian = tested on: NCI/ADR-RES ovarian
ACHN renal = tested on: ACHN renal
LOX IMVI melanoma = tested on: LOX IMVI melanoma
RPMI-8226 leukemia = tested on: RPMI-8226 leukemia
786-0 renal = tested on: 786-0 renal
HS 578T breast = tested on: HS 578T breast
TK-10 renal = tested on: TK-10 renal
MDA-MB-231 breast = tested on: MDA-MB-231 breast
PC-3 prostate = tested on: PC-3 prostate
SN12C renal = tested on: SN12C renal
NCI-H23 lung = tested on: NCI-H23 lung
OVCAR-8 ovarian = tested on: OVCAR-8 ovarian
HOP-92 NSCLC = tested on: HOP-92 NSCLC
SK-OV-3 ovarian = tested on: SK-OV-3 ovarian
MCF7 breast = tested on: MCF7 breast
T-47D breast = tested on: T-47D breast
UACC-62 melanoma = tested on: UACC-62 melanoma
IGROV1 ovarian = tested on: IGROV1 ovarian
SNB-75 CNS = tested on: SNB-75 CNS
HCT-116 colon = tested on: HCT-116 colon
KM12 colon = tested on: KM12 colon
OVCAR-4 ovarian = tested on: OVCAR-4 ovarian
HCC-2998 colon = tested on: HCC-2998 colon
COLO 205 colon = tested on: COLO 205 colon
NCI-H226 lung = tested on: NCI-H226 lung
A498 renal = tested on: A498 renal
RXF 393 renal = tested on: RXF 393 renal
SK-MEL-2 melanoma = tested on: SK-MEL-2 melanoma
UO-31 renal = tested on: UO-31 renal
NCI-H460 lung = tested on: NCI-H460 lung

CC1(C)CNC(=O)C2(CCCO2)CNC(C)(C)CNC(=O)C2(CCCO2)CN1 (stereo not given)
TGI (HOP-62 NSCLC): > 10 µM
TGI (BT-549 breast): > 10 µM
TGI (UACC-257 melanoma): > 10 µM
TGI (SF-295 CNS): > 10 µM
TGI (NCI-H522 lung): > 10 µM
TGI (HCT-15 colon): > 10 µM
TGI (CAKI-1 renal): > 10 µM
TGI (DU-145 prostate): > 10 µM
TGI (SK-MEL-5 melanoma): > 10 µM
TGI (SR leukemia): > 10 µM
TGI (CCRF-CEM leukemia): > 10 µM
TGI (SW-620 colon): > 10 µM
TGI (OVCAR-3 ovarian): > 10 µM
TGI (M14 melanoma): > 10 µM
TGI (SNB-19 CNS): > 10 µM
TGI (SF-268 CNS): > 10 µM
TGI (K-562 leukemia): > 10 µM
TGI (MALME-3M melanoma): > 10 µM
TGI (SF-539 CNS): > 10 µM
TGI (HT29 colon): > 10 µM
TGI (U251 CNS): > 10 µM
TGI (HL-60(TB) leukemia): > 10 µM
TGI (MOLT-4 leukemia): > 10 µM
TGI (OVCAR-5 ovarian): > 10 µM
TGI (MDA-MB-435): > 10 µM
TGI (A549 NSCLC): > 10 µM
TGI (SK-MEL-28 melanoma): > 10 µM
TGI (NCI/ADR-RES ovarian): > 10 µM
TGI (ACHN renal): > 10 µM
TGI (LOX IMVI melanoma): > 10 µM
TGI (RPMI-8226 leukemia): > 10 µM
TGI (786-0 renal): > 10 µM
TGI (HS 578T breast): > 10 µM
TGI (TK-10 renal): > 10 µM
TGI (MDA-MB-231 breast): > 10 µM
TGI (PC-3 prostate): > 10 µM
TGI (SN12C renal): > 10 µM
TGI (NCI-H23 lung): > 10 µM
TGI (OVCAR-8 ovarian): > 10 µM
TGI (HOP-92 NSCLC): > 10 µM
TGI (SK-OV-3 ovarian): > 10 µM
TGI (MCF7 breast): > 10 µM
TGI (T-47D breast): > 10 µM
TGI (UACC-62 melanoma): > 10 µM
TGI (IGROV1 ovarian): > 10 µM
TGI (SNB-75 CNS): > 10 µM
TGI (HCT-116 colon): > 10 µM
TGI (KM12 colon): > 10 µM
TGI (OVCAR-4 ovarian): > 10 µM
TGI (HCC-2998 colon): > 10 µM
TGI (COLO 205 colon): > 10 µM

COc1ccc(-c2nc3sc(-c4cc(OC)c(OC)c(OC)c4)nn3c2/C=C2/C(=O)Nc3ccc(F)cc32)cc1
GI50 (HOP-62 NSCLC): 1.94 µM
TGI (HOP-62 NSCLC): 4.74 µM
GI50 (BT-549 breast): 14.9 µM
TGI (BT-549 breast): 74.6 µM
GI50 (UACC-257 melanoma): 3.35 µM
TGI (UACC-257 melanoma): 11.3 µM
GI50 (SF-295 CNS): 3 µM
TGI (SF-295 CNS): 10.8 µM
GI50 (NCI-H226 lung): 16.8 µM
TGI (NCI-H226 lung): 36.7 µM
GI50 (NCI-H522 lung): 5.44 µM
TGI (NCI-H522 lung): 18 µM
GI50 (HCT-15 colon): 2.5 µM
TGI (HCT-15 colon): > 100 µM
GI50 (CAKI-1 renal): 4.48 µM
TGI (CAKI-1 renal): 20 µM
GI50 (DU-145 prostate): 1.87 µM
TGI (DU-145 prostate): 4.53 µM
GI50 (SK-MEL-5 melanoma): 1.64 µM
TGI (SK-MEL-5 melanoma): 3.65 µM
GI50 (SR leukemia): 23.5 µM
TGI (SR leukemia): > 100 µM
GI50 (CCRF-CEM leukemia): 5.49 µM
TGI (CCRF-CEM leukemia): > 100 µM
GI50 (A498 renal): 12.2 µM
TGI (A498 renal): 30.6 µM
GI50 (SW-620 colon): 3.22 µM
TGI (SW-620 colon): 14.8 µM
GI50 (OVCAR-3 ovarian): 2.32 µM
TGI (OVCAR-3 ovarian): 5.27 µM
GI50 (M14 melanoma): 5.51 µM
TGI (M14 melanoma): 28.1 µM
GI50 (SNB-19 CNS): 15.1 µM
TGI (SNB-19 CNS): 44 µM
GI50 (SF-268 CNS): 4.4 µM
TGI (SF-268 CNS): 33.1 µM
GI50 (K-562 leukemia): 13.1 µM
TGI (K-562 leukemia): > 100 µM
GI50 (RXF 393 renal): 3.96 µM
TGI (RXF 393 renal): 18.7 µM
GI50 (MALME-3M melanoma): 9.15 µM
TGI (MALME-3M melanoma): 29.9 µM
GI50 (SF-539 CNS): 56 µM
TGI (SF-539 CNS): > 100 µM
GI50 (HT29 colon): 2.18 µM
TGI (HT29 colon): 4.68 µM
GI50 (U251 CNS): 1.77 µM
TGI (U251 CNS): 3.39 µM
GI50 (HL-60(TB) leukemia): 2.17 µM
TGI (HL-60(TB) leukemia): 70.3 µM
GI50 (MOLT-4 leukemia): 4.54 µM
TGI (MOLT-4 leukemia): > 100 µM
GI50 (OVCAR-5 ovarian): 6.14 µM
TGI (OVCAR-5 ovarian): 21.7 µM
GI50 (MDA-MB-435): 3.39 µM
TGI (MDA-MB-435): 14 µM
GI50 (A549 NSCLC): 2.13 µM
TGI (A549 NSCLC): 5.26 µM
GI50 (SK-MEL-28 melanoma): 9.58 µM
TGI (SK-MEL-28 melanoma): 27.8 µM
GI50 (NCI/ADR-RES ovarian): 21.9 µM
TGI (NCI/ADR-RES ovarian): > 100 µM
GI50 (ACHN renal): 3.29 µM
TGI (ACHN renal): 15.3 µM
GI50 (LOX IMVI melanoma): 6.88 µM
TGI (LOX IMVI melanoma): 37.6 µM
GI50 (RPMI-8226 leukemia): 11.3 µM
TGI (RPMI-8226 leukemia): 64.6 µM
GI50 (SK-MEL-2 melanoma): 5.58 µM
TGI (SK-MEL-2 melanoma): 17.6 µM
GI50 (786-0 renal): 16 µM
TGI (786-0 renal): 32.7 µM
GI50 (HS 578T breast): 16.2 µM
TGI (HS 578T breast): > 100 µM
GI50 (TK-10 renal): 2.26 µM
TGI (TK-10 renal): 4.23 µM
GI50 (MDA-MB-231 breast): 5.25 µM
TGI (MDA-MB-231 breast): 20.7 µM
GI50 (UO-31 renal): 15 µM
TGI (UO-31 renal): 29.7 µM
GI50 (PC-3 prostate): 24.7 µM
TGI (PC-3 prostate): 65.3 µM
GI50 (SN12C renal): 14.2 µM
TGI (SN12C renal): 40.1 µM
GI50 (NCI-H23 lung): 4.25 µM
TGI (NCI-H23 lung): 21.5 µM
GI50 (OVCAR-8 ovarian): 5.34 µM
TGI (OVCAR-8 ovarian): > 100 µM
GI50 (HOP-92 NSCLC): 2.02 µM
TGI (HOP-92 NSCLC): 9.48 µM
GI50 (SK-OV-3 ovarian): 2.84 µM
TGI (SK-OV-3 ovarian): 7.34 µM
GI50 (MCF7 breast): 1.66 µM
TGI (MCF7 breast): 6.32 µM
GI50 (T-47D breast): 2.01 µM
TGI (T-47D breast): 5.16 µM
GI50 (UACC-62 melanoma): 13.3 µM
TGI (UACC-62 melanoma): 33.4 µM
GI50 (IGROV1 ovarian): 3.39 µM
TGI (IGROV1 ovarian): 12.7 µM
GI50 (SNB-75 CNS): 10.3 µM
TGI (SNB-75 CNS): 22.6 µM
GI50 (NCI-H460 lung): 3.42 µM
TGI (NCI-H460 lung): 15.3 µM
GI50 (HCT-116 colon): 14.2 µM
TGI (HCT-116 colon): 40.5 µM
GI50 (KM12 colon): 4.04 µM
TGI (KM12 colon): 15.7 µM
GI50 (OVCAR-4 ovarian): 1.77 µM
TGI (OVCAR-4 ovarian): 4.51 µM
GI50 (HCC-2998 colon): 5.25 µM
TGI (HCC-2998 colon): 22 µM
GI50 (COLO 205 colon): 1.61 µM
TGI (COLO 205 colon): 4.13 µM
